We go through three molecules from article PMC11011526, “Identification of Inhibitors of the Disease-Associated Protein Phosphatase Scp1 Using Antibody Mimetic Molecules” (International Journal of Molecular Sciences, 2024).

The term Kd denotes a measure of binding affinity in units of concentration. Read a low Kd as a tighter complex.

One assay addresses T1, Scp3 (Homo sapiens, UniProt O15194).
T1 construct: gene CTDSPL; recombinant, GST tag and Myc-His6 tag
T1 sequence (O15194 1-276): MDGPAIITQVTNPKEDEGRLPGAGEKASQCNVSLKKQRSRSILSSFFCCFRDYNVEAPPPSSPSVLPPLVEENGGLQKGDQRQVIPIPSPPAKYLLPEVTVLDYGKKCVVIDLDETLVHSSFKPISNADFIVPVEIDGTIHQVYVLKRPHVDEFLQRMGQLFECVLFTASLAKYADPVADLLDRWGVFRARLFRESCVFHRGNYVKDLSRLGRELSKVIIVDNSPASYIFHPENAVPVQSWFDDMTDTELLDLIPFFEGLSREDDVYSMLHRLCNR
Put plainly: colorimetric pNPP phosphatase assay, absorbance […] nm. Format: biochemical. The following applies: 20 mM Na-maleate pH 5.5, 10 mM MgCl2; 10 mM pNPP; 37 °C; 7 min.

Assay [1] deals with T2, Scp1 (Homo sapiens, UniProt Q9GZU7).
T2 construct: gene CTDSP1; recombinant in E. coli Rosetta, Talon purified; His6-Scp1 (kinetics) or GST-Scp1-Myc-His6 (specificity assay)
T2 sequence (Q9GZU7 1-261): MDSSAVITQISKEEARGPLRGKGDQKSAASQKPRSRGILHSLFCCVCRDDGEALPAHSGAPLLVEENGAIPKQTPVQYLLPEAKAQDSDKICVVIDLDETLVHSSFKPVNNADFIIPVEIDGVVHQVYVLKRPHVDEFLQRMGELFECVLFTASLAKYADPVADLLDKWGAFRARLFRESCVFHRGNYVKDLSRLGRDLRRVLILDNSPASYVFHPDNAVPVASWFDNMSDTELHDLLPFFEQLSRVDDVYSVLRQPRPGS
Described as above. The conditions noted are these: 20 mM Na-maleate pH 5.5, 10 mM MgCl2; His6-Scp1 10 nM; no added adnectin. Format: biochemical.

Another assay concerns the target T3, Scp2 (Homo sapiens, UniProt O14595).
T3 construct: gene CTDSP2; recombinant, GST tag and Myc-His6 tag
T3 sequence (O14595 1-271): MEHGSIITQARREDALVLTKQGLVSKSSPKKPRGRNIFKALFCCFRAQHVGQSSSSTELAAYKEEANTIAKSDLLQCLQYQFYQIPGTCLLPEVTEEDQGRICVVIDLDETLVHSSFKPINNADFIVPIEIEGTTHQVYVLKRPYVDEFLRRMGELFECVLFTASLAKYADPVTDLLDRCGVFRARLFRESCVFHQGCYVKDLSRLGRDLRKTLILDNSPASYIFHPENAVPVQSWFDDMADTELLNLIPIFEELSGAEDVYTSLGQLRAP
Described as above. Format: biochemical. The following applies: 20 mM Na-maleate pH 5.5, 10 mM MgCl2; 10 mM pNPP; 37 °C; 7 min.

The next assay concerns the target T4, Fcp1 (Homo sapiens, UniProt Q9Y5B0).
T4 construct: gene CTDP1; recombinant, GST tag and Myc-His6 tag
T4 sequence (Q9Y5B0 1-961): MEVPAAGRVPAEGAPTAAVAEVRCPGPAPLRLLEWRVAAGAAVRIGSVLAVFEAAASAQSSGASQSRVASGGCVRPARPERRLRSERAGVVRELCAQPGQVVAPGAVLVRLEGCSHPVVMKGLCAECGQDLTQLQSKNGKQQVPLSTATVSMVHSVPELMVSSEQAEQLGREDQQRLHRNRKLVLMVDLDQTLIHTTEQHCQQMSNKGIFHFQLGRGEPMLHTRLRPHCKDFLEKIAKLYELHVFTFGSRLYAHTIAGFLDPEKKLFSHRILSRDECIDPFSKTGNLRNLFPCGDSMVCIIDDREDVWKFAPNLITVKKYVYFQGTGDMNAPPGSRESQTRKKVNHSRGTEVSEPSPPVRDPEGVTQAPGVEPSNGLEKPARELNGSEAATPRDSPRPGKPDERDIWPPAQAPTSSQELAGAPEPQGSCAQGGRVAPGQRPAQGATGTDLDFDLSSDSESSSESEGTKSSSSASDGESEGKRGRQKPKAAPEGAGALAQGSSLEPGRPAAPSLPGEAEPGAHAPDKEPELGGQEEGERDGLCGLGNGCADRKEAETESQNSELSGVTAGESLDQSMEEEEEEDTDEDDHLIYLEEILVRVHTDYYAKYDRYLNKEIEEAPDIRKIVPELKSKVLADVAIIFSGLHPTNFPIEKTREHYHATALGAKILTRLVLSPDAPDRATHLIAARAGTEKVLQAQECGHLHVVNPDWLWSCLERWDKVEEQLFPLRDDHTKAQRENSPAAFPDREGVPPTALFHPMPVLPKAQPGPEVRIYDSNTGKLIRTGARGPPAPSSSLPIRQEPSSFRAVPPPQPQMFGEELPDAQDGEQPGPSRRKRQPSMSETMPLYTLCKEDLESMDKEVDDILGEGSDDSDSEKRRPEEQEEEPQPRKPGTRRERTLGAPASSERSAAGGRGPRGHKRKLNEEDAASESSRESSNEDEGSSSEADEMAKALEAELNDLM
The assay is described as above. Format: biochemical. The conditions noted are these: 20 mM Na-maleate pH 5.5, 10 mM MgCl2; 10 mM pNPP; 37 °C; 60 min.

Assay [2] deals with T2, Scp1. Description: competition ELISA against FG-1Adn binding. The conditions noted are these: 100 µM rabeprazole; 20 mM Na-maleate pH 5.5, 150 mM NaCl, 10 mM MgCl2; R.T.; indirect, displacement of adnectin FG-1Adn. For orientation: An ELISA detects its analyte on a solid surface through an enzyme-linked reagent.
The next assay has as its target FG-1Adn (human). Description: BLI; BLItz system, Advanced Kinetics mode; biotinylated FG-1Adn loaded on streptavidin biosensors; 20 mM Na-maleate (pH 5.5), 150 mM NaCl, 10 mM MgCl2, 0.05% Tween; 250 nM Scp1, 120 s association, 120 s dissociation; 1:1 Langmuir model. A general note: In BLI a coated tip is dipped into the sample, and binding shifts an interference pattern.

Turning to `O=[N+]([O-])c1ccc(OP(=O)(O)O)cc1` [pNPP], the “colorimetric pNPP phosphatase assay, absorbance 410 nm” value on Scp3 was “inhibitory effects of FG-1Adn inhibition against FCP/SCP phosphatases using pNPP as a substrate”; at Scp1 [1] it was “Lineweaver–Burk plot analysis was performed using pNPP as a substrate”; on Scp2, “inhibitory effects of FG-1Adn inhibition against FCP/SCP phosphatases using pNPP as a substrate”; on Fcp1, “inhibitory effects of FG-1Adn inhibition against FCP/SCP phosphatases using pNPP as a substrate”.
Consider `COCCCOc1ccnc(C[S+]([O-])c2nc3ccccc3[nH]2)c1C` (stereo not drawn) [rabeprazole], for which the “almost complete inhibition of FG-1Adn binding” value at Scp1 [2] is on record as “rabeprazole almost completely inhibited the binding of FG-1Adn to Scp1”.

B1: Scp1 (enzyme)
chain: T2 sequence (Q9GZU7 1-261)
As to B1, the Kd with FG-1Adn (human) was determined as 48.7 nM.
